In BindingDB's records for doi:10.1111/cbdd.12457 (Universiti Kebangsaan Malaysia, Jalan Raja Muda Abdul Aziz, 2015):

Key:
[1] = molecular target: T1, Prostaglandin G/H synthase 2 (Homo sapiens, UniProt P35354); assay: Cyclooxygenase Assay; conditions: pH 8; 25 °C
T1 sequence (P35354 whole entry): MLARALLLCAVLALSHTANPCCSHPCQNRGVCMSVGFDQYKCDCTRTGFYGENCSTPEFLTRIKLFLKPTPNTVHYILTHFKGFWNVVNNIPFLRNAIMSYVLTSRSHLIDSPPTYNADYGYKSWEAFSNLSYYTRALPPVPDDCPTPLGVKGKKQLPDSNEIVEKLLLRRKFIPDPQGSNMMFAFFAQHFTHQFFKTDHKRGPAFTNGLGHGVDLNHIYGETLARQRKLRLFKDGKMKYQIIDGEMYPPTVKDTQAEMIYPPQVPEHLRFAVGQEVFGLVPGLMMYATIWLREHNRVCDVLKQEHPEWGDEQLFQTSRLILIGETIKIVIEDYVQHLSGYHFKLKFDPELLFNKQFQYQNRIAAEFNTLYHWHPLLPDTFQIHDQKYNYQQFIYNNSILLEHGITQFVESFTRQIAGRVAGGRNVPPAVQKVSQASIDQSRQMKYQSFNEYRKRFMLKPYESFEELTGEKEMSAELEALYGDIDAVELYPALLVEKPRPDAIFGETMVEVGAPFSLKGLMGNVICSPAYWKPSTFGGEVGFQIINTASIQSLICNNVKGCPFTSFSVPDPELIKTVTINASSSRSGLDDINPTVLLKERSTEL
Description: (§1) 100 mM Tris HCl buffer, pH 8.0 containing 1 µM heme and COX-1 (ovine) or COX-2(human recombinant), which was preincubated for 10 min in a water bath at 37 °C was used for reaction mixture preparation. Addition of 10 µL arachidonic acid to the reaction mixture (final concentration 100 µM) was used to initiate reaction. After 2 min reaction was stopped by addition of 1 M HCl. PGE2 in the reaction mixture was determined using ELISA method. 100 mM potassium phosphate buffer (pH 7.4) was used to dilute the DMSO stock solutions of the test compounds to the desired concentration. This reaction mixture was transferred to a 96-well platethat was precoated with a mouse anti-rabbit IgG. Tracer prostaglandin acetylcholine esterase and primary antibody (mouse anti PGE2) were also added to the plates followed by overnight incubation at room temperature. After overnightincubation, reaction mixtures were pipetted out and the wells were washed with 10 mM potassium phosphate buffer containing 0.05% Twe

[2] = molecular target: T2, Prostaglandin G/H synthase 1 (Ovis aries, UniProt P05979); assay: Cyclooxygenase Assay; conditions: pH 8; 25 °C
T2 sequence (P05979 whole entry): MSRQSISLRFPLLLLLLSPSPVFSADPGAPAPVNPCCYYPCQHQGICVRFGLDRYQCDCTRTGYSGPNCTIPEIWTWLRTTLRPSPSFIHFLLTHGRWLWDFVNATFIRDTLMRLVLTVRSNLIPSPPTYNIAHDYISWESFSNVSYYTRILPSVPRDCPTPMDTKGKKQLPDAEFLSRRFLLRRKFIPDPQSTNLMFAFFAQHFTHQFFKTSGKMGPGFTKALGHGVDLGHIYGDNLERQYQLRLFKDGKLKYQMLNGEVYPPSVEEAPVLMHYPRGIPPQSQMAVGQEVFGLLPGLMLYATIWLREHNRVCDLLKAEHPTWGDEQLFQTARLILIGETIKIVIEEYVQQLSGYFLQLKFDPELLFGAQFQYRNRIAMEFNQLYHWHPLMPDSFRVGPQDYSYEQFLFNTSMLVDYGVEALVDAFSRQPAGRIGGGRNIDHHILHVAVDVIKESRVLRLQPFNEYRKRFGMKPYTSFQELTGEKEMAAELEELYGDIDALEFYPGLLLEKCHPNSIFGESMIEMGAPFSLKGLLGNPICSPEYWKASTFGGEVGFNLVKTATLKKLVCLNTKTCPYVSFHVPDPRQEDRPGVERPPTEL
Description: as §1

[3] = molecular target: T3, Phospholipase A2 group V (Homo sapiens, UniProt P39877); assay: sPLA2V Activity Assay; conditions: pH 7.5; 25 °C
T3 sequence (P39877 whole entry): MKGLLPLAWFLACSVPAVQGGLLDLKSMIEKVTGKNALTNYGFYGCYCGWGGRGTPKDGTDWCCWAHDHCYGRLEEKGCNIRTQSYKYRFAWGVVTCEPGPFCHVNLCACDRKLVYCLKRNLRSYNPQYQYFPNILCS
Description: Briefly, sn-2ester bond of the substrate 1,2-bis(heptanoylthio)-glycerophosphocholine was hydrolyzed by PLA2-V followed by the exposure of free thiols. These thiols activated the conversion of DTNB (5,5–dithio-bis-(2-nitrobenzoic acid) to 2-nitro-5-thiobenzoic acid, which was photometrically detected at 405 nm. After this, the assay proceeded in an aqueous buffer solution (pH 7.5) containing KCl (94 mM), CaCl2 (9 mM), Tris (24 mM), and Triton-X 100 ([…]). Before the assay was started, substrate and PLA2-V was resuspended in assay buffer whereas DTNB was dissolved in an aqueous solution of Tris-HCl (pH 8) yielding an enzyme and DTNB concentrations of 100 ng/mL and 87 BM, respectively. 96-well micro titre plates containing substrate solution, DTNB, and the respective test substance were used to carry out assays at room temperature.

Row | Structure (SMILES) | IC50 [1] [µM] | IC50 [2] [µM] | IC50 [3] [µM]
1 | CN(C)c1ccc(/C=C/C(=O)c2ccc3c(c2)OCCO3)c2ccccc12 [1-(2,3-Dihydro-benzo[1,4]dioxin-6-yl)-3-(4-dimethylamino-naphthalen-1-yl)-propenone (4)] | 24.5 | 7.06 | 32.2
2 | COc1cc2ccccc2c(/C=C/C(=O)c2cc3ccccc3o2)c1OC [1-Benzofuran-2-yl-3-(2,3-dimethoxy-naphthalen-1-yl)-propenone (3)] | 12.2 | 12.5 | 12.7
3 | COc1ccc2c(OC)ccc(/C=C/C(=O)c3cc4ccccc4o3)c2c1 [1-Benzofuran-2-yl-3-(4,7-dimethoxy-naphthalen-1-yl)-propenone (2)] | 19.1 | 15 | 27.8
4 | COc1cc2ccccc2c(C2CC(c3ccc4c(c3)OCCO4)=NN2C(N)=S)c1OC (stereo unspecified) [3-(2,3-Dihydro-benzo[1,4]dioxin-6-yl)-5-(2,3-dimethoxy-naphthalen-1-yl)-4,5-dihydro-pyrazole-1-carbothioic acid amide (5a)] | 17.8 | 3.42 | 19.2
5 | COc1cc2ccccc2c(C2CC(c3ccc4c(c3)OCCO4)=NN2C(=O)Nc2ccc(Cl)cc2)c1OC (stereo unspecified) [3-(2,3-Dihydro-benzo[1,4]dioxin-6-yl)-5-(2,3-dimethoxy-naphthalen-1-yl)-4,5-dihydropyrazole-1-carboxylic acid (4-chloro-phenyl)-amide (5b)] | 12.3 | 1.17 | 17.3
6 | COc1ccc2c(OC)ccc(C3CC(c4ccc5c(c4)OCCO5)=NN3C(N)=S)c2c1 (stereo unspecified) [3-(2,3-Dihydro-benzo[1,4]dioxin-6-yl)-5-(4,7-dimethoxy-naphthalen-1-yl)-4,5-dihydro-pyrazole-1-carbothioic acid amide (6a)] | 12.6 | 2.82 | 7.12
7 | COc1ccc2c(OC)ccc(C3CC(c4ccc5c(c4)OCCO5)=NN3C(=O)Nc3ccc(Cl)cc3)c2c1 (stereo unspecified) [3-(2,3-Dihydro-benzo[1,4]dioxin-6-yl)-5-(4,7-dimethoxy-naphthalen-1-yl)-4,5-dihydropyrazole-1-carboxylic acid (4-chloro-phenyl)-amide (6b)] | 12 | 0.94 | 5.12
8 | CN(C)c1ccc(C2CC(c3ccc4c(c3)OCCO4)=NN2C(N)=S)c2ccccc12 (stereo unspecified) [3-(2,3-Dihydro-benzo[1,4]dioxin-6-yl)-5-(4-dimethylamino-naphthalen-1-yl)-4,5-dihydropyrazole-1-carbothioic acid amide (4a)] | 13.2 | 1.12 | 22.2
9 | CN(C)c1ccc(C2CC(c3ccc4c(c3)OCCO4)=NN2C(=O)Nc2ccc(Cl)cc2)c2ccccc12 (stereo unspecified) [3-(2,3-Dihydro-benzo[1,4]dioxin-6-yl)-5-(4-dimethylamino-naphthalen-1-yl)-4,5-dihydropyrazole-1-carboxylic acid (4-chloro-phenyl)-amide (4b)] | 9.72 | 0.44 | 17.2
10 | COc1cc2ccccc2c(C2CC(c3cc4ccccc4o3)=NN2C(N)=S)c1OC (stereo unspecified) [3-Benzofuran-2-yl-5-(2,3-dimethoxy-naphthalen-1-yl)-4,5-dihydro-pyrazole-1-carbothioic acid amide (3a)] | 10.3 | 8.06 | 9.17
11 | COc1cc2ccccc2c(C2CC(c3cc4ccccc4o3)=NN2C(=O)Nc2ccc(Cl)cc2)c1OC (stereo unspecified) [3-Benzofuran-2-yl-5-(2,3-dimethoxy-naphthalen-1-yl)-4,5-dihydro-pyrazole-1-carboxylic acid(4-chloro-phenyl)-amide (3b)] | 5.02 | 0.99 | 8.46
12 | COc1ccc2c(OC)ccc(C3CC(c4cc5ccccc5o4)=NN3C(N)=S)c2c1 (stereo unspecified) [3-Benzofuran-2-yl-5-(4,7-dimethoxy-naphthalen-1-yl)-4,5-dihydro-pyrazole-1-carbothioic acid amide (2a)] | 12.3 | 7.22 | 21.1
13 | COc1ccc2c(OC)ccc(C3CC(c4cc5ccccc5o4)=NN3C(=O)Nc3ccc(Cl)cc3)c2c1 (stereo unspecified) [3-Benzofuran-2-yl-5-(4,7-dimethoxy-naphthalen-1-yl)-4,5-dihydro-pyrazole-1-carboxylic acid(4-chloro-phenyl)-amide (2b)] | 11.1 | 2.14 | 14.5
14 | CN(C)c1ccc(C2CC(c3cc4ccccc4o3)=NN2C(N)=S)c2ccccc12 (stereo unspecified) [3-Benzofuran-2-yl-5-(4-dimethylamino-naphthalen-1-yl)-4,5-dihydro-pyrazole-1-carbothioic acid amide (1a)] | 14.5 | 4.53 | 35.4
15 | CN(C)c1ccc(C2CC(c3cc4ccccc4o3)=NN2C(=O)Nc2ccc(Cl)cc2)c2ccccc12 (stereo unspecified) [3-Benzofuran-2-yl-5-(4-dimethylamino-naphthalen-1-yl)-4,5-dihydro-pyrazole-1-carboxylic acid(4-chloro-phenyl)-amide (1b)] | 9.1 | 1.87 | 22.2
16 | C[C@@H]1C[C@H]2[C@@H]3CCC4=CC(=O)C=C[C@]4(C)[C@@]3(F)[C@@H](O)C[C@]2(C)[C@@]1(O)C(=O)CO [dexamethasone (tetramethyl-rhodamine conjugated )] | – | – | 0.62
